Measurements published in patent publication US10010581B2, “Syndecan peptides and polypeptides and uses thereof” (Wisconsin Alumni Research Foundation, priority 2012, dated 2018).
Where no end group is shown, it is not given here.

Columns and labels:
Assay type in all cases: cell-based, human
[1] = system: HaCat keratinocytes or MCF10A mammary epithelial cells; assay: competition of LPA-induced haptotactic migration by GST fusion proteins or synthetic peptides (FIG. 10 summary); details: 0.1 to 30 μM, 3 μM LPA
Protocol: FIGS. 10A-C. Schematic summary of experiments using either recombinant GST fusion proteins or synthetic peptides to disrupt Sdc1-dependent coupling of HER2 to α6β4 integrin necessary for LPA-induced haptotactic migration. GST-fusion proteins or synthetic peptides were added at concentrations ranging from 0.1 to 30 μM to the culture medium of human HaCat keratinocytes or MCF10A mammary epithelial cells in the presence or absence of 3 μM LPA. The ability of the constructs to inhibit the migration of the cells to close a scratch wound in confluent monolayers was determined and expressed as the concentration of inhibitor necessary to cause 50% inhibition of cell migration. (FIG. 10A) Competition using recombinant GST-fusion proteins. GST-Sdc1 fusion proteins bearing truncations or mutations were assessed for their competitive activity. […] (FIG. 10B) Competition with synthetic peptides. Peptides were purchased from commercial sources for testing as a putative synstatin inhibitory peptide (SSTNHER2). […] (FIG. 10C) Schematic representation of the active site in Sdc1. The active site is shown as a juxtamembrane site in the ectodomain of Sdc1. TM is the transmembrane domain and CYTO is the cytoplasmic domain. The sequence of a peptide derived from this site (SSTNHER2) is shown along with its homology across other mammalian Sdc1 species. The human STTNHER2 sequence is SEQ ID NO:23; the homology for STTNHER2 across mammals is SEQ ID NO:24.
(§1) HaCat or MCF10A cells were grown to confluence on 48 well-plates were starved for 6 hr by serum deprivation followed by introduction of a scratch wound in the monolayer using 200 μl pipette tip. Cells were cultured an additional 18 hr in DMEM containing mAb 3E1 (10 μg/ml) and goat anti-mouse IgG (50 μg/ml), EGF (10 ng/ml) or HGF (20 ng/ml) to cause cell migration in the presence or absence of inhibitors. Images were acquired using a PlanApo 20 (0.75 numerical aperture) objective and a Photometrics CoolSnap ES camera on a Nikon Eclipse TE2000U microscopy system and wound closure quantified.

HaCat keratinocytes = assay: scratch wound haptotaxis induced by LPA and clustering of α6β4 integrin; details: LPA + α6β4 clustered with mAb 3E1 and secondary antibody, AG825 10 μM, Iressa 1 μM
Text: FIG. 6A-D. Sdc1 is required for HER2/α6β4-dependent HaCat keratinocyte migration. (FIG. 6A) HaCat keratinocytes deposit laminin 332 (LN332) and migrate upon this using α3β1 and α6β4 integrins to close a scratch wound in the monolayer when stimulated to undergo chemotaxis in response to EGF. Alternatively, migration is induced by clustering the integrin (using mAb 3E1 against the integrin+a secondary antibody to cluster the first antibody and thus the entire complex) in the presence of LPA. This mimics the clustering that occurs when the cells engage LN332 and is referred to as haptotaxis. […] (FIG. 6B) Haptotaxis, stimulated by LPA and clustering of α6β4 integrin as described in FIG. 6A, is blocked by antibody directed against the α3β1 integrin or by BM165 which targets the binding site for α3β1 in LN332. […] (FIG. 6C) The potential roles of Sdc1 or Sdc4 in haptotaxis is tested by silencing their expression, together with attempting to rescue with either wild-type mouse Sdc1 or Sdc4, or mouse mutants unable to engage the β4 cytoplasmic domain (mSdc1ΔC2 or mSdc4ΔC2). Haptotaxis is blocked by silencing endogenous Sdc1, and this cannot be rescued by Sdc1ΔC2 that fails to engage the α6β4 integrin. Silencing Sdc4 also disrupts migration, but this traces to its role in activity of the α3β1 integrin and not a role in engaging the α6β4 integrin, as it can be rescued by mSdc4ΔC2 that fails to associate with the α6β4 integrin. (FIG. 6D) Immunoprecipitation of either native mSdc4 or mSdc4[…]C2 confirms that the mSdc4ΔC2 mutant no longer associates with the α6β4 integrin, but does with the α3β1 integrin. […]
HaCat or MCF10A cells were grown to confluence on 48 well-plates were starved for 6 hr by serum deprivation followed by introduction of a scratch wound in the monolayer using 200 μl pipette tip. […] Images were acquired using a PlanApo 20 (0.75 numerical aperture) objective and a Photometrics CoolSnap ES camera on a Nikon Eclipse TE2000U microscopy system and wound closure quantified. […]

[2] = system: MCF10A mammary epithelial cells; assay: scratch wound haptotaxis induced by clustering the α6β4 integrin; details: α6β4 integrin clustered
Protocol: FIG. 9. Sdc1 ectodomain fragments and β4 dominant-negative mutant specific for Sdc1/α6β4/HER2 block MCF10A mammary epithelial cell migration. Haptotaxis of MCF10A human mammary epithelial cells induced by clustering the α6β4 integrin in a scratch wound assay is used to test the efficacy of inhibitors that target the Sdc1 mechanism. Cells are incubated either with entire recombinant syndecan ectodomains (Sdc1 ectodomain (S1ED) or Sdc4 ectodomain (S4ED) as a control), or an active fragment of mouse S1ED (S1ED^200-252) containing the inhibitory site.
as §1
The inventor used this assay to further truncate the S1ED recombinant proteins in order to find the smallest peptide that retains full inhibitory activity (e.g., SSTNHER2). The inventor tested mouse and human S1ED and find that they compete equally. […]

A431 cells = assay: A431 cell attachment and spreading on LN332; details: 2 hr, mAb13 30 μg/ml, heparinase III 0.4 CU/ml, Sdc1 siRNA 100 nM
Protocol: FIGS. 2A-E. Requirement of syndecan-1 for A431 cell spreading on LN332. A431 […] cells plated on slides coated with 10 μg/ml LN332 (FIG. 2A) without treatment; (FIG. 2B) with blocking antibody 3E1 to α6β4; (FIG. 2C) prior treatment with heparinase III; or (FIG. 2D) prior treatment with siRNA specific for human Sdc1. (FIG. 2E) Quantification of spread cells plated on LN332 and treated with blocking antibody to β1 integrin (mAb13 30 μg/ml) or control IgG (20 μg/ml), 3E1 blocking antibody (20 ug/ml) to β4 integrin, heparinase III (0.4 CU/ml) or human Sdc1 siRNA (100 nM). Data represent triplicate experiments +/−S.D. (Wang et al., 2010).
Nitrocellulose-coated 10-well glass slides (Erie Scientific, Portsmouth, N.H.) were prepared as described by Beauvais and. Rapraeger (2010). Wells of slide were coated at 37° C. for 2 h with mAb 3E1 (3 μg/ml), diluted in phosphate-buffered saline (CMF-PBS: 135 mM NaCl, 2.7 mM KCl, 10.2 mM Na2HPO47H2O, and 1.75 mM KH2PO4, pH 7.4), and blocked with serum-free Hepes-buffered DMEM (pH 7.4) containing 0.1% heat-denatured bovine serum albumin (plating medium). Cells were lifted with trypsin (0.25% w/v), washed with DMEM, and regenerated in suspension for 1 h at 37° C. in DMEM containing 10% fetal bovine serum. Cells were then plated in wells (50 μl/well) in plating medium at 10^5 cells/ml. […]

Molecule: 210-236: truncated synthetic peptide, amino acids 210-236 of human Sdc1 (DFTFETSGENTAVVAVEPDRRNQSPVD; UniProt P18827 210-236, looked up, fragment)
- competitive (inhibitory) activity on haptotactic migration [1]: loss of activity

Molecule: 214-240: truncated synthetic peptide, amino acids 214-240 of human Sdc1 (ETSGENTAVVAVEPDRRNQSPVDQGAT; UniProt P18827 214-240, looked up, fragment)
- competitive (inhibitory) activity on haptotactic migration [1]: loss of activity

Molecule: COc1cc(/C=C(\C#N)C(N)=O)cc(CSc2nc3ccccc3s2)c1O [AG825]
- haptotaxis (migration to close a scratch wound) (HaCat keratinocytes): blocks migration

Molecule: COc1cc2ncnc(Nc3ccc(F)c(Cl)c3)c2cc1OCCCN1CCOCC1 [Iressa]
- haptotaxis (migration to close a scratch wound) (HaCat keratinocytes): without effect

Molecule: S1ED^200-252: active fragment of mouse S1ED containing the inhibitory site, recombinant fusion protein (QLPAGEGSGEQDFTFETSGENTAVAAVEPGLRNQPPVDEGATGASQSLLDRKE; also: recombinant fusion protein, partner not given here; UniProt P18828 200-252, looked up, fragment)
- haptotaxis (migration to close a scratch wound) [2]: competes for haptotaxis

B1: heparinase: enzyme treatment that blocks the ability of Sdc1 to bind LN332 (protein, UniProt Q59289 25-659, looked up)
Heparin-sulfate lyase: QSSSITRKDFDHINLEYSGLEKVNKAVAAGNYDDAAKALLAYYREKSKAREPDFSNAEKPADIRQPIDKVTREMADKALVHQFQPHKGYGYFDYGKDINWQMWPVKDNEVRWQLHRVKWWQAMALVYHATGDEKYAREWVYQYSDWARKNPLGLSQDNDKFVWRPLEVSDRVQSLPPTFSLFVNSPAFTPAFLMEFLNSYHQQADYLSTHYAEQGNHRLFEAQRNLFAGVSFPEFKDSPRWRQTGISVLNTEIKKQVYADGMQFELSPIYHVAAIDIFLKAYGSAKRVNLEKEFPQSYVQTVENMIMALISISLPDYNTPMFGDSWITDKNFRMAQFASWARVFPANQAIKYFATDGKQGKAPNFLSKALSNAGFYTFRSGWDKNATVMVLKASPPGEFHAQPDNGTFELFIKGRNFTPDAGVFVYSGDEAIMKLRNWYRQTRIHSTLTLDNQNMVITKARQNKWETGNNLDVLTYTNPSYPNLDHQRSVLFINKKYFLVIDRAIGEATGNLGVHWQLKEDSNPVFDKTKNRVYTTYRDGNNLMIQSLNADRTSLNEEEGKVSYVYNKELKRPAFVFEKPKKNAGTQNFVSIVYPYDGQKAPEISIRENKGNDFEKGKLNLTLTINGKQQLVLVP
- cell spreading on LN332 (A431 cells): disrupted
